Values of other authors, collected in patent US20080038219A1, “Novel Composition for a Topical Skin Treatment Base and Medicated Applications Thereof” (CALGENEX CORPORATION, priority 2006, published 2008).

Tested on: mild-to-moderate acne
Conditions: versus tretinoin 0.05%, benzoyl peroxide 5%, topical erythromycin 2%

O=C(O)CCCCCCCC(=O)O [azelaic acid]
efficacy in treatment of mild-to-moderate acne: efficacy comparable
